{"source": "ChEMBL document CHEMBL1132820", "about": "“DNA minor groove interactions and the biological activity of 2,5-bis” (Bioorg Med Chem Lett, 2000)", "key": {"Rattus norvegicus [1]": {"tested_on": "Rattus norvegicus", "test": "Number of mean cysts/g of lung tissue observed at 0.9 uM/kg/day dose of compound tested in vivo against Pneumocystis carinii pneumonia infected rats", "type": "functional"}, "Rattus norvegicus [2]": {"tested_on": "Rattus norvegicus", "test": "Number of mean cysts/g of lung tissue observed at 9-10 uM/kg/day dose of compound tested in vivo against Pneumocystis carinii pneumonia infected rats", "type": "functional"}}}
{"smiles": "N=C(NC1CCC1)c1ccc(-c2ccc(-c3ccc(C(=N)NC4CCC4)cc3)o2)cc1", "values": [{"measurement": "PCP activity", "setting": "Rattus norvegicus [1]", "value": 0.67, "unit": "cysts g-1"}, {"measurement": "PCP activity", "setting": "Rattus norvegicus [2]", "value": 0.05, "unit": "cysts g-1"}]}
{"smiles": "N=C(NC1CCCCC1)c1ccc(-c2ccc(-c3ccc(C(=N)NC4CCCCC4)cc3)o2)cc1", "values": [{"measurement": "PCP activity", "setting": "Rattus norvegicus [1]", "value": 26.2, "unit": "cysts g-1"}, {"measurement": "PCP activity", "setting": "Rattus norvegicus [2]", "value": 0.02, "unit": "cysts g-1"}]}
{"smiles": "N=C(NC1CCCC1)c1ccc(-c2ccc(-c3ccc(C(=N)NC4CCCC4)cc3)o2)cc1", "values": [{"measurement": "PCP activity", "setting": "Rattus norvegicus [1]", "value": 0.11, "unit": "cysts g-1"}, {"measurement": "PCP activity", "setting": "Rattus norvegicus [2]", "value": 0.03, "unit": "cysts g-1"}]}
